# Measurements: publication PMC12488499, “Molecular mechanism of ultrafast transport by plasma membrane Ca^2+-ATPases” (Nature, 2025)
# Tests used:
# [1] = molecular target: T1, PMCA2 (Mus musculus, UniProt Q9R0K7); experiment: cryo-EM structure, E1-ATP state; type: binding; design: gene Atp2b2; mouse PMCA2 (NM_001036684.3) with C-terminal FLAG or His-FLAG tag, expressed in tsA201 NPTN/BSG double knockout cells; with NPTN
# [2] = molecular target: T1, PMCA2; experiment: whole-cell patch clamp, BKCa-based Ca2+ transport assay in CHO cells; design: gene Atp2b2; PMCA2 C-terminally fused with GFP, co-expressed with NPTN-RFP in CHO cells; with NPTN
# T1 sequence (Q9R0K7 whole entry, the tested form may be a part): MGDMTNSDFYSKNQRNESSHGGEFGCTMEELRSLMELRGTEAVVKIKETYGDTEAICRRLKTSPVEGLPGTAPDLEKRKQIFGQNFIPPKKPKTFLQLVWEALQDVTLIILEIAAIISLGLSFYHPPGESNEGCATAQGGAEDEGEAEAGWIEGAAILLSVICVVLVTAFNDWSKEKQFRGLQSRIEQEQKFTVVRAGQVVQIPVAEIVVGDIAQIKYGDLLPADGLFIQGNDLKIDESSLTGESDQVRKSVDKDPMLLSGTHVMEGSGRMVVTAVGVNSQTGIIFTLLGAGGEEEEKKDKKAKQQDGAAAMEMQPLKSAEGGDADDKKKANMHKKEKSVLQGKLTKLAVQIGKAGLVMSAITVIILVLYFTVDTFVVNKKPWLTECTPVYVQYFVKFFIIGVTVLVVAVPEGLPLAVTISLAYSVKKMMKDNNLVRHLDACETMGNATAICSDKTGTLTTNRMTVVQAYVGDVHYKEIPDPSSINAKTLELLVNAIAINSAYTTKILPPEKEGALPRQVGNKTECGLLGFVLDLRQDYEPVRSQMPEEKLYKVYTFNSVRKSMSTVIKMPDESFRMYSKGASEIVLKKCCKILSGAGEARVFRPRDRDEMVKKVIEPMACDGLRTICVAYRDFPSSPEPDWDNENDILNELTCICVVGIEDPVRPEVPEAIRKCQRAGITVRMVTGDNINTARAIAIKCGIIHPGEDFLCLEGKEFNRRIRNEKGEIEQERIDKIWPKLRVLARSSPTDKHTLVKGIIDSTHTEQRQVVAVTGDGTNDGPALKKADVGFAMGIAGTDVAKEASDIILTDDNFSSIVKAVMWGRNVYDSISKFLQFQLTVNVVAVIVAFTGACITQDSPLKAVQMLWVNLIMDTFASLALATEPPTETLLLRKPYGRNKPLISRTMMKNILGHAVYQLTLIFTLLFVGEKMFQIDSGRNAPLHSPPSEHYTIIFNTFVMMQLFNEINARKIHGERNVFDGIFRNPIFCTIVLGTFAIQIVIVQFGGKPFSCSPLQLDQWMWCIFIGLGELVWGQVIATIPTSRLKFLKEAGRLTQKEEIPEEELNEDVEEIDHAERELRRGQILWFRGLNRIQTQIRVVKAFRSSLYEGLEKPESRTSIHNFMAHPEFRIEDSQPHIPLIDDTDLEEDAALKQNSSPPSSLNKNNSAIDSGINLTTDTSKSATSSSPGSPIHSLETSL
# T1 sequence (P97300 29-397 partner): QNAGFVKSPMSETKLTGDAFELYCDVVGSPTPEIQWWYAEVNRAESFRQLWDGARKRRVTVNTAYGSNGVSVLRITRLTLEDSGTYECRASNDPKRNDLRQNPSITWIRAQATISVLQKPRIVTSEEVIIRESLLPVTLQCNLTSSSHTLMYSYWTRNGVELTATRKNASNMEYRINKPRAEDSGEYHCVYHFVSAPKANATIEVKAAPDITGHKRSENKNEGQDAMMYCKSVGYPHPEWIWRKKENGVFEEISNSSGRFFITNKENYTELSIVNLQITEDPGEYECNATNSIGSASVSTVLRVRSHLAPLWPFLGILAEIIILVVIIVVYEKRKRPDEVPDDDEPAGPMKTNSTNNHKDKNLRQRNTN
SMILES,"cryo-EM structure, E1-ATP state [1]",IC50 [2]
Nc1ncnc2c1ncn2[C@@H]1O[C@H](CO[P@](=O)(O)O[P@](=O)(O)NP(=O)(O)O)[C@@H](O)[C@H]1O [AMPPNP],"The bound AMPPNP molecule is shown, with the corresponding cryo-EM density in grey.",
C/C=C(/C)C(=O)O[C@H]1C(C)=C2[C@H]([C@@H]1OC(=O)CCCCCCC)[C@@](C)(OC(C)=O)C[C@H](OC(=O)CCC)[C@@]1(O)[C@H]2OC(=O)[C@@]1(C)O [thapsigargin],,2.6 µM
